Test results published in patent US20040014946A1, “Protein interaction method and composition” (priority 2002, published 2004).

Test system: AbI Protein Tyrosine Kinase
Assay: On-chip phosphorylation inhibition screening assay (biofunction chip, MALDI MS)
Assay type: biochemical
Conditions: 250 nM substrate, 23° C.
Procedure: FIG. 8 illustrates a biofunction chip with enzymatic functions. The reaction components consisted of 0.4U/well of AbI at pH 7.5, 0.1 mM ATP, and 400 nM substrate. 4 μl were added per well, and the reaction was incubated at 23° C. for 90 minutes. On-chip phosphorylation in rabbit reticulocyte extract with various substrate concentrations (0, 10, 30, 100, and 300 nM) is shown in FIG. 10. Reproducibility of the spectra in the same scale and in different scales normalized to the phosphorylated peaks are shown in FIG. 13. The percent phosphorylation is determined over time for 1 Unit of substrate per well versus 0.12 Unit substrate per well.
Screening assays for ATP analogs or substrate analogs capable of inhibiting phosphorylation were also tested. […] 250 nM substrate, 5 μM ATP, 20 U/well AbI TK, and 0, 4, 8, 12, 16, and 20 μM ATTP were incubated at 23° C. for 60 minutes. […] 250 nM substrate, 5 μM ATP, 20 U/well AbI TK, and 0, 5, 10, 15 and 40 μM Genistein were incubated at 23° C. for 60 minutes. […] 250 nM substrate, 100 μM ATP, 0.4 Units/well AbI TK, and 0, 1, 2, 4, 8, and 12 μM Erbstain were incubated at 23° C. for 60 minutes.
The components of biofunction chips are useful for kinase studies, histone acetylation, DNA methylation and protease studies. […]

SMILES | inhibition of phosphorylation (100 μM ATP, 0.4 Units/well AbI TK, 0, 1, 2, 4, 8 and 12 μM Erbstain, 60 minutes (FIG. 16)) | inhibition of phosphorylation (5 μM ATP, 20 U/well AbI TK, 0, 5, 10, 15 and 40 μM Genistein, 60 minutes (FIG. 15))
O=CN/C=C/c1cc(O)ccc1O [Erbstain] | inhibition of phosphorylation | 
O=c1c(-c2ccc(O)cc2)coc2cc(O)cc(O)c12 [Genistein] |  | inhibition of phosphorylation
